# Assay results taken from patent publication US11065355B2, “Device for monitoring efficacy of a decontamination process comprising a bacteria cell and method of using” (priority 2017, dated 2021).
# Tested on: M. terrae cells
# Assay: PAA time course, cell suspension testing of M. terrae cell resistance to high-level disinfection
# Format: cell-based, Mycobacterium terrae ATCC 15755
# Details: for Log Population / Log reduction / M. terrae Population: 850 ppm PAA, 30° C., 21 days growth culture
# Experimental: Into a 50 ml polypropylene tube, pipet 0.85 ml of RAPICIDE Part A, 0.85 ml of RAPICIDE part B, and mix with 48.3 ml of distilled water. Vortex to mix thoroughly. Place tube in 30° C. water bath to equilibrate for at least 10 minutes before use.
# PAA Time course: Exposure to PAA for various contact time points at 30° C. at the minimum effective concentration of RAPICIDE PAA (850 ppm). 10 μl of M. terrae cell samples at a target concentration of at least 1×10^8 cfu/mL were added to a 1.5 mL […] each sample in a 30° C. water bath. At the end of each contact time, samples were neutralized by adding 600 μL of 3% sodium thiosulfate with 0.05% Tween 80 for 15 mins at 30° C. Samples were centrifuged for 10 mins at 14000 rpm at 4 C. The supernatant was decanted off and samples were resuspended in 1 ml of BBL buffer. Serial dilutions (1:10) were made of each sample and 1 mL of each dilution was plated on Middlebrook 7H10 agar with Middlebrook OADC enrichment. Plates were incubated at 37° C. for 14-21 days.
# The procedure of Example 1 was repeated using 21-days growth cells, with the M. terrae cells exposed to PAA instead of OPA.
structure (smiles),measurement,setting,value
"CC(=O)OO [PAA, peracetic acid]",Log Population,exposure 1 seconds,10.2
same,Log reduction,exposure 1 seconds,0.0
same,M. terrae Population,exposure 1 seconds,1.53E+10 CFU
same,Log Population,exposure 15 seconds,9.5
same,Log reduction,exposure 15 seconds,0.7
same,M. terrae Population,exposure 15 seconds,3.45E+09 CFU
same,Log Population,exposure 30 seconds,8.1
same,Log reduction,exposure 30 seconds,2.1
same,M. terrae Population,exposure 30 seconds,1.40E+08 CFU
same,Log Population,exposure 60 seconds,7.3
same,Log reduction,exposure 60 seconds,2.9
same,M. terrae Population,exposure 60 seconds,2.00E+07 CFU
same,Log Population,exposure 90 seconds,0
same,Log reduction,exposure 90 seconds,10.2
same,M. terrae Population,exposure 90 seconds,1.00E+00 CFU
same,Log Population,exposure 120 seconds,0
same,Log reduction,exposure 120 seconds,10.2
same,M. terrae Population,exposure 120 seconds,1.00E+00 CFU
same,Log Population,exposure 150 seconds,0
same,Log reduction,exposure 150 seconds,10.2
same,M. terrae Population,exposure 150 seconds,1.00E+00 CFU
same,Log Population,exposure 180 seconds,0
same,Log reduction,exposure 180 seconds,10.2
same,M. terrae Population,exposure 180 seconds,1.00E+00 CFU
same,Log Population,exposure 210 seconds,0
same,Log reduction,exposure 210 seconds,10.2
same,M. terrae Population,exposure 210 seconds,1.00E+00 CFU
same,Log Population,exposure 240 seconds,0
same,Log reduction,exposure 240 seconds,10.2
same,M. terrae Population,exposure 240 seconds,1.00E+00 CFU
same,Log Population,exposure 270 seconds,0
same,Log reduction,exposure 270 seconds,10.2
same,M. terrae Population,exposure 270 seconds,1.00E+00 CFU
same,Log Population,exposure 300 seconds,0
same,Log reduction,exposure 300 seconds,10.2
same,M. terrae Population,exposure 300 seconds,1.00E+00 CFU
same,exposure to PAA for a 6 log reduction in M. terrae cells,"PAA at 30° C., 21-days growth cells",about 75 seconds
